Our source for the Kd and GI50 values is patent US12558428B2, “Heterobifunctional compounds and their use in treating disease” (Halda Therapeutics OpCo, Inc., priority 2024, dated 2026).

One assay addresses T1, CDK1 (Homo sapiens, UniProt P06493).
T1 construct: made in house; host or cells: T7 phage in E. coli BL21-derived host, or HEK-293 cells
Description: Binding affinity to CDK1 (KdELECT assay). The protocol:
Exemplary compounds were tested for ability to bind to CDK1.
Compounds were tested using a KdELECT assay. Kinase-tagged T7 phage strains were prepared in an E. coli host derived from the BL21 strain. E. coli were grown to log-phase and infected with T7 phage and incubated with shaking at 32° C. until lysis. The lysates were centrifuged and filtered to remove cell debris. The remaining kinases were produced in HEK-293 cells and subsequently tagged with DNA for qPCR detection. Streptavidin-coated magnetic beads were treated with biotinylated small molecule ligands for 30 minutes at room temperature to generate affinity resins for kinase assays. The liganded beads were blocked with excess biotin and washed with blocking buffer (SeaBlock (Pierce), 1% BSA, 0.05% Tween 20, 1 mM DTT) to remove unbound ligand and to reduce non-specific binding. Binding reactions were assembled by combining kinases, liganded affinity beads, and test compounds in 1× binding buffer (20% SeaBlock, 0.17×PBS, 0.05% Tween 20, 6 mM DTT). Test compounds were prepared as 11 IX stocks in 100% DMSO. Kd values were determined using an 11-point 3-fold compound dilution series with three DMSO control points. All compounds for Kd measurements are distributed by acoustic transfer (non-contact dispensing) in 100% DMSO. […] The kinase concentration in the eluates was measured by qPCR.

The test system of assay [1] is T-Rex 293 cells having increased expression of estrogen receptor alpha protein. The assay can be described thus: Cellular growth inhibition assay, T-Rex 293 cells, (+) doxycycline. Particulars: T-REx-293, 72 h, Table 7-B; T-Rex 293 cells with doxycycline (increased ERα expression); 72 hours; CellTiter-Glo; read-out: (+) Dox GI50. Format: cell-based. In outline: (§1)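 Viability read-out was CellTiter-Glo 2.0 luminescence after 72 h compound exposure, normalized to zero luminescence and fitted by four-parameter regression to give GI50. Cells were an ERα-inducible T-Rex 293 clone cultured with or without 3 ng/mL doxycycline in charcoal-stripped, phenol red-free medium.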

The subject of assay [2] is T-Rex 293 cells lacking increased expression of estrogen receptor alpha protein. The assay can be described thus: Cellular growth inhibition assay, T-Rex 293 cells, (−) doxycycline. Format: cell-based. The settings on record: T-REx-293, 72 h, Table 7-B; T-Rex 293 cells without doxycycline (lacking increased ERα expression); 72 hours; CellTiter-Glo; read-out: (−) Dox GI50. The gist of the method: as §1
Background: Cellular ATP, detected with luciferase, serves as a proxy for viable cell number.

In assay [3] the test system is MCF7 cells (ECACC #86012803). Description: Cellular growth inhibition assay, MCF7 cells purchased from ECACC. Format: cell-based. Particulars: Homo sapiens, 144 h; MCF7 cells purchased from ECACC (#86012803); six days treatment; CellTiter-Glo 2.0 viability. As to the method:
Exemplary compounds were tested for the ability to inhibit the proliferation of MCF7 cells.
MCF7 cells (ATCC #HTB-22 or ECACC #86012803) were cultured in RPMI 1640 medium supplemented with 10% heat-inactivated fetal bovine serum, 1% pen-strep, and 0.2 U/ml insulin. Cells were seeded in 25 μL of RPMI 1640 medium supplemented with 10% heat-inactivated fetal bovine serum, 1% pen-strep, 0.2 U/ml insulin in poly-D-lysine treated, black clear-bottom 384-well plates at 225 cells/well for MCF7 cells purchased from ECACC or 1,500 cells/well for MCF7 cells purchased from ATCC. Following seeding, plates were spun at 300×g for 30 seconds and cultured at 37° C. with 5% CO2 in a humidified tissue culture incubator.
At 24 hours after seeding, compounds were titrated in 100% DMSO and diluted in RPMI 1640 medium supplemented with 10% heat-inactivate fetal bovine serum, 1% pen-strep, and 0.2 U/ml insulin. A 25 μL aliquot of the compound/media mixture was added to cells, bringing the total volume in each well to 50 μL. An equal volume of DMSO without compound was used as a negative control. After treatment, plates were spun at 300×g for 30 seconds, then cultured at 37° C. with 5% CO2 for six days in a humidified tissue culture incubator.
On Day 6 of treatment, cell viability was quantified with CellTiter-Glo 2.0 reagent (Promega). Plates were equilibrated to room temperature for 30 minutes, then 25 μL of CellTiter-Glo 2.0 reagent was added to cells, bringing the total volume in each well to 75 μL. After reagent was added, plates were mixed on a shaker for two minutes at 500 rpm and then incubated at room temperature for 10 minutes. Following incubation, plates were spun at 3,000×g for 30 seconds, sealed with an optical adhesive cover, and luminescence readings were measured with an EnVision Plate Reader.
Data was normalized to 0 luminescence for baseline. A four-parameter, non-linear regression curve fit was applied to dose-response data in GraphPad Prism data analysis software to determine the half maximal growth inhibitory concentration (GI50) for each compound.

pKd: −log10 of the molar value.

T1 sequence (P06493 whole entry): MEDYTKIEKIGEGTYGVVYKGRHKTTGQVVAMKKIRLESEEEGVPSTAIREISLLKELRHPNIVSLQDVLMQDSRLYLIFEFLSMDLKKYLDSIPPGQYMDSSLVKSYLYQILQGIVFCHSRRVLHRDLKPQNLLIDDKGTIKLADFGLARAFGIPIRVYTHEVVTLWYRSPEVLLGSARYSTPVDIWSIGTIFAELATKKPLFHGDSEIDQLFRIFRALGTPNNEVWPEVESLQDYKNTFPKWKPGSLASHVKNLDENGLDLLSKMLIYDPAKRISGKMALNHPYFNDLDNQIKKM

With `CCN(CCOCCOCCNS(=O)(=O)c1ccc(Nc2ncc(Br)c(Nc3cccc(F)c3C(N)=O)n2)cc1)CCOc1ccc(C(=O)c2c(-c3ccc(O)cc3)sc3cc(O)ccc23)cc1` [I-40], on CDK1, the pKd is 6.30 to 7.30.

`CCN(CCOCCOCCOCCOCCOCCOCCNS(=O)(=O)c1ccc(Nc2ncc(Br)c(Nc3cccc(F)c3C(N)=O)n2)cc1)CCOc1ccc(C(=O)c2c(-c3ccc(O)cc3)sc3cc(O)ccc23)cc1` [I-42] showed a pKd at CDK1 of 6.30 to 7.30.

For `COc1cc(N2CCC(O)(CN3CCN(c4cc(F)c([C@@H]5c6ccc(O)cc6CC[C@@H]5c5ccc(F)cc5)c(F)c4)CC3)CC2)ccc1C1=N[C@@H](C)c2nnc(C)n2-c2sc(C)c(C)c21` [III-358], the GI50 in assay [1] is less than 50 nM; in assay [2] it was 500 to 2500 nM; in assay [3], less than 50 nM.

With `COc1cc(N2CCC(O)(CN3CCC(c4cc(F)c([C@H]5c6ccc(O)cc6CC[C@H]5c5ccc(F)cc5)c(F)c4)CC3)CC2)ccc1C1=N[C@@H](C)c2nnc(C)n2-c2sc(C)c(C)c21` [III-359], the values for the GI50 in assay [1], in assay [2] and in assay [3] were 50 to 500 nM, 500 to 2500 nM and 50 to 500 nM, respectively.

Turning to `COc1cc(N2CCN(CC3(O)CCN(c4ccc(C5=N[C@@H](C)c6nnc(C)n6-c6sc(C)c(C)c65)cc4)CC3)CC2)ccc1C1=C(c2ccccc2)CCCc2cc(C(=O)O)ccc21` [IV-66], the GI50 is less than 50 nM in assay [1], 500 to 2500 nM in assay [2] and less than 50 nM in assay [3].

As for `Cc1sc2c(c1C)C(c1ccc(N3CCC(O)(CN4CCN(c5cc(F)c(C6=C(c7ccccc7)CCCc7cc(C(=O)O)ccc76)cc5F)CC4)CC3)cc1)=N[C@@H](C)c1nnc(C)n1-2` [IV-67], the results for the GI50 in assay [1], in assay [2] and in assay [3] were less than 50 nM, 500 to 2500 nM and less than 50 nM, respectively.

On to `COc1cc(N2CCN(CC3(O)CCN(c4ccc(C5=N[C@@H](C)c6nnc(C)n6-c6sc(C)c(C)c65)cc4)CC3)CC2)c(F)cc1C1=C(c2ccccc2F)CCCc2cc(C(=O)O)ccc21` [IV-68], for which the GI50 in assay [1] is less than 50 nM; in assay [2] it was 500 to 2500 nM; in assay [3], less than 50 nM.

Regarding `Cc1sc2c(c1C)C(c1ccc(N3CCC(O)(CN4CCN(c5cc(F)c(C6=C(c7ccccc7)CCCc7cc(C(=O)O)ccc76)c(F)c5)CC4)CC3)cc1)=N[C@@H](C)c1nnc(C)n1-2` [IV-69], the GI50 in assay [1] is less than 50 nM; in assay [2], 500 to 2500 nM; in assay [3] it was less than 50 nM.

Turning to `Cc1sc2c(c1C)C(c1ccc(N3CC(CN4CCN(CC5CN(c6cc(F)c(C7=C(c8ccccc8)CCCc8cc(C(=O)O)ccc87)cc6F)C5)CC4)C3)cc1)=N[C@@H](C)c1nnc(C)n1-2` [IV-70], the results for the GI50 in assay [1], in assay [2] and in assay [3] were less than 50 nM, 500 to 2500 nM and less than 50 nM, respectively.

Turning to `COc1cc(C2CCN(CC3CCC4(CC3)CN(c3ccc(C5=N[C@@H](C)c6nnc(C)n6-c6sc(C)c(C)c65)cc3)C4)CC2)ccc1C1=C(c2ccccc2Cl)CCCc2cc(C(=O)O)ccc21` [IV-71], the figures for the GI50 in assay [1], in assay [2] and in assay [3] were less than 50 nM, 500 to 2500 nM and less than 50 nM, respectively.

Regarding `Cc1sc2c(c1C)C(c1ccc(N3CC4(CC(CN5CCN(c6cc(F)c(C7=C(c8ccccc8F)CCCc8cc(C(=O)O)ccc87)cc6F)CC5)C4)C3)cc1)=N[C@@H](C)c1nnc(C)n1-2` [IV-72], the GI50 in assay [1] was less than 50 nM; in assay [2] it was 500 to 2500 nM; in assay [3], less than 50 nM.

In general, pKd refers to −log10 of the Kd, conventionally taken in molar units. A higher pKd goes with a small Kd. In general, GI50 refers to the concentration giving 50% growth inhibition.
